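Growth conditions: 96-well plates. Treatment: test compound, 48 hours, 5 concentrations. Analysis: linear interpolation between bracketing concentrations; unreached endpoints set to highest concentration. TGI is the concentration that stops growth completely.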
How the values were obtained:
Assay in all cases: growth of human tumour cells (NCI), 48 h
786-0 renal = system: 786-0 renal
A549 NSCLC = system: A549 NSCLC
ACHN renal = system: ACHN renal
BT-549 breast = system: BT-549 breast
CAKI-1 renal = system: CAKI-1 renal
CCRF-CEM leukemia = system: CCRF-CEM leukemia
COLO 205 colon = system: COLO 205 colon
DU-145 prostate = system: DU-145 prostate
EKVX NSCLC = system: EKVX NSCLC
HCC-2998 colon = system: HCC-2998 colon
HCT-116 colon = system: HCT-116 colon
HCT-15 colon = system: HCT-15 colon
HL-60(TB) leukemia = system: HL-60(TB) leukemia
HOP-62 NSCLC = system: HOP-62 NSCLC
HOP-92 NSCLC = system: HOP-92 NSCLC
HT29 colon = system: HT29 colon
IGROV1 ovarian = system: IGROV1 ovarian
K-562 leukemia = system: K-562 leukemia
KM12 colon = system: KM12 colon
LOX IMVI melanoma = system: LOX IMVI melanoma
M14 melanoma = system: M14 melanoma
MCF7 breast = system: MCF7 breast
MDA-MB-435 = system: MDA-MB-435
NCI-H226 lung = system: NCI-H226 lung
NCI-H23 lung = system: NCI-H23 lung
NCI-H460 lung = system: NCI-H460 lung
NCI-H522 lung = system: NCI-H522 lung
NCI/ADR-RES ovarian = system: NCI/ADR-RES ovarian
OVCAR-3 ovarian = system: OVCAR-3 ovarian
OVCAR-4 ovarian = system: OVCAR-4 ovarian
OVCAR-5 ovarian = system: OVCAR-5 ovarian
OVCAR-8 ovarian = system: OVCAR-8 ovarian
PC-3 prostate = system: PC-3 prostate
RPMI-8226 leukemia = system: RPMI-8226 leukemia
RXF 393 renal = system: RXF 393 renal
SF-268 CNS = system: SF-268 CNS
SF-295 CNS = system: SF-295 CNS
SF-539 CNS = system: SF-539 CNS
SK-MEL-2 melanoma = system: SK-MEL-2 melanoma
SK-MEL-28 melanoma = system: SK-MEL-28 melanoma
SK-MEL-5 melanoma = system: SK-MEL-5 melanoma
SK-OV-3 ovarian = system: SK-OV-3 ovarian
SN12C renal = system: SN12C renal
SNB-19 CNS = system: SNB-19 CNS
SNB-75 CNS = system: SNB-75 CNS
SR leukemia = system: SR leukemia
SW-620 colon = system: SW-620 colon
T-47D breast = system: T-47D breast
TK-10 renal = system: TK-10 renal
U251 CNS = system: U251 CNS
UACC-257 melanoma = system: UACC-257 melanoma
UACC-62 melanoma = system: UACC-62 melanoma
UO-31 renal = system: UO-31 renal

Measured: TGI

O=c1c2cc(I)ccc2nc(-c2cccs2)n1/N=C/c1ccccc1
> 100 µM: all assays above

— PubChem BioAssay (NCI)
